# The source made the active and inactive calls. The calls are words filed in the database; no cut-off is given here.
# How the values were obtained:
# [1] = biological target: T1, Heparanase (Homo sapiens, UniProt Q9Y251); assay: Inhibition of recombinant HPSE (unknown origin) using fondaparinux as substrate incubated for 3 hrs in absence of light by WST1 assay
# T1 sequence (Q9Y251 whole entry): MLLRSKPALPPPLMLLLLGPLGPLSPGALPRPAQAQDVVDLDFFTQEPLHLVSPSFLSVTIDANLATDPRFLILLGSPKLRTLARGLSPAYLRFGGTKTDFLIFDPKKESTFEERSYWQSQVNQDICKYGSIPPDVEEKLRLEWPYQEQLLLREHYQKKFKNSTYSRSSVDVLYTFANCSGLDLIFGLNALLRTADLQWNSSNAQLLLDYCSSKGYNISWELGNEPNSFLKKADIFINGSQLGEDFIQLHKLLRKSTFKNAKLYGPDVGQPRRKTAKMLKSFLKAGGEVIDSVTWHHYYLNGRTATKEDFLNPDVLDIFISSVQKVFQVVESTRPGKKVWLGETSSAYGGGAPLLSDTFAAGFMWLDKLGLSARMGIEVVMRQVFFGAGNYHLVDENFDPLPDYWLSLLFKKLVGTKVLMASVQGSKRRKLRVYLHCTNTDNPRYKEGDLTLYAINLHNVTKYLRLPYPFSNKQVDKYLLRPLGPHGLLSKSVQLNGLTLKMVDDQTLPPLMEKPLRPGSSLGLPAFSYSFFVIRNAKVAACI
# [2] = tested on: HT-1080; assay: Anti-invasive activity in human HT1080 cells assessed as reduction in invasive potential at 10 uM after 24 hrs by matrigel invasion assay relative to control; assay type: functional; settings: HT-1080, 24 h
# [3] = tested on: HT-1080; assay: Anti-invasive activity in human HT1080 cells assessed as reduction in invasive potential at […] after 24 hrs by matrigel invasion assay relative to control; assay type: functional, cell-based
# [4] = biological target: T2, Heparanase (Homo sapiens) (UniProt Q9Y251); assay: Inhibition of HPSE in human HT1080 cells assessed as reduction in VEGF mRNA expression after 24 hrs by qPCR analysis relative to control; assay type: cell-based
# T2 sequence (whole entry): T1 sequence (Q9Y251 whole entry)
# [5] = biological target: T2, Heparanase (Homo sapiens); assay: Inhibition of HPSE in human HT1080 cells assessed as reduction in FGF2 mRNA expression after 24 hrs by qPCR analysis relative to control; assay type: cell-based
# [6] = tested on: U2OS; assay: Anti-invasive activity in human U2OS cells assessed as reduction in invasive potential at 10 uM after 24 hrs by matrigel invasion assay relative to control; assay type: functional
# [7] = biological target: T2, Heparanase (Homo sapiens); assay: Inhibition of HPSE in human HT1080 cells assessed as reduction in HPSE mRNA expression after 24 hrs by qPCR analysis relative to control; assay type: cell-based
# [8] = biological target: T2, Heparanase (Homo sapiens); assay: Inhibition of HPSE in human HT1080 cells assessed as reduction in MMP9 mRNA expression after 24 hrs by qPCR analysis relative to control; assay type: cell-based
# [9] = tested on: U-87 MG; assay: Anti-invasive activity in human U87MG cells assessed as reduction in invasive potential at 10 uM after 24 hrs by matrigel invasion assay relative to control; assay type: functional, U-87MG ATCC
# [10] = tested on: U2OS; assay: Antiproliferative activity against human U2OS cells after 72 hrs by SRB assay; assay type: cell-based
# [11] = tested on: U-87 MG; assay: Antiproliferative activity against human U87MG cells after 72 hrs by SRB assay; assay type: cell-based, U-87MG ATCC
# [12] = biological target: T2, Heparanase (Homo sapiens); assay: Inhibition of HPSE in human HT1080 cells assessed as reduction in FGF1 mRNA expression after 24 hrs by qPCR analysis relative to control; assay type: cell-based
# [13] = tested on: HT-1080; assay: Antiproliferative activity against human HT1080 cells after 72 hrs by SRB assay; assay type: cell-based
# [14] = tested on: U-87 MG; assay: Anti-invasive activity in human U87MG cells assessed as reduction in invasive potential at 1 uM after 24 hrs by matrigel invasion assay relative to control; assay type: functional, U-87MG ATCC
# [15] = tested on: U2OS; assay: Anti-invasive activity in human U2OS cells assessed as reduction in invasive potential at 1 uM after 24 hrs by matrigel invasion assay relative to control; assay type: functional
# [16] = tested on: HT-1080; assay: Anti-invasive activity in human HT1080 cells assessed as reduction in invasive potential at 1 uM after 24 hrs by matrigel invasion assay relative to control; assay type: functional; settings: HT-1080, 24 h
# [17] = Antiproliferative activity against HPSE-expressing human CME1 cells after 72 hrs by SRB assay; assay type: functional
# [18] = species: Homo sapiens; assay: Anti-invasive activity in human CME1 cells assessed as reduction in invasive potential after 24 hrs by matrigel invasion assay; assay type: functional, cell-based
# [19] = species: Homo sapiens; assay: Anti-invasive activity in human CME1 cells assessed as reduction in invasive potential at […] uM after 24 hrs by matrigel invasion assay; assay type: functional, cell-based
# [20] = species: Homo sapiens; assay: Anti-invasive activity in human CME1 cells assessed as reduction in invasive potential at […] uM after 72 hrs by matrigel invasion assay; assay type: functional, cell-based
smiles,measurement,setting,value
O=C(O)Cc1ccc(O)c(NC(=O)c2ccc(NC(=O)Nc3ccc(C(=O)Nc4cc(CC(=O)O)ccc4O)cc3)cc2)c1,IC50,[1],2730 nM
O=C(Cc1ccc2[nH]c(-c3ccc(NC(=O)Nc4ccc(-c5nc6cc(CC(=O)NC(Cc7ccccc7)C(=O)O)ccc6[nH]5)cc4F)c(F)c3)nc2c1)NC(Cc1ccccc1)C(=O)O (configuration not stated),IC50,[1],820 nM
O=C(Nc1ccc(C(=O)Nc2cccc(B(O)O)c2)cc1)Nc1ccc(C(=O)Nc2cccc(B(O)O)c2)cc1,IC50,[1],> 10000 nM
O=C(O)Cc1cccc(NS(=O)(=O)c2ccc(NC(=O)Nc3ccc(S(=O)(=O)Nc4cccc(CC(=O)O)c4)cc3)cc2)c1,IC50,[1],> 10000 nM
O=C(O)CNC(=O)Cc1ccc2oc(-c3ccc(NC(=S)Nc4ccc(-c5nc6cc(CC(=O)NCC(=O)O)ccc6o5)cc4F)c(F)c3)nc2c1,inhibition at 10 µM,[2],50 to 90%
same,inhibition,[3],Active
same,inhibition,[4]; concentration not given here,< 40%
same,inhibition,[5],< 40%
same,inhibition at 10 µM,[6],< 50%
same,IC50,[1],80 nM
same,inhibition,[7]; concentration not given here,< 40%
same,inhibition,[8],< 40%
same,inhibition at 10 µM,[9],50 to 90%
same,IC50,[10]; u2os,Not Active
same,IC50,[11]; u-87mg atcc,Not Active
same,inhibition,[12],< 40%
same,IC50,[13]; ht-1080,Not Active
O=C(O)Cc1ccc2oc(N3CCC(NC(=O)NC4CCN(c5nc6cc(CC(=O)O)ccc6o5)CC4)CC3)nc2c1,IC50,[1],> 10000 nM
CC(C)CC(NC(=O)Cc1ccc2oc(-c3ccc(NC(=O)Nc4ccc(-c5nc6cc(CC(=O)NC(CC(C)C)B(O)O)ccc6o5)cc4F)c(F)c3)nc2c1)B(O)O (configuration not stated),IC50,[1],4870 nM
O=C(O)Cc1cccc(NC(=O)c2ccc(NC(=S)Nc3ccc(C(=O)Nc4cccc(CC(=O)O)c4)cc3F)c(F)c2)c1,IC50,[1],2610 nM
O=C(O)Cc1cccc(NC(=O)c2ccc(CC(=O)Cc3ccc(C(=O)Nc4cccc(CC(=O)O)c4)cc3)cc2)c1,IC50,[1],> 10000 nM
O=C(O)Cc1ccc2oc(-c3cccc(NC(=O)Nc4cccc(-c5nc6cc(CC(=O)O)ccc6o5)c4)c3)nc2c1,IC50,[1],> 10000 nM
COc1ccc(C(=O)Nc2ccc(CNc3ccc(-c4nc5cc(CC(=O)O)ccc5[nH]4)cc3F)cc2)cc1Br,inhibition,[4],Active
same,inhibition,[5],Active
same,inhibition at 1 µM,[14],50 to 90%
same,inhibition,[7],Active
same,inhibition,[8],Active
same,inhibition at 1 µM,[15],50 to 90%
same,IC50,"[10]; Homo sapiens, U2OS, 72 h, read-out: IC50",1700 nM
same,IC50,"[11]; Homo sapiens, U-87 MG, 72 h, read-out: IC50",2800 nM
same,inhibition,[12],Active
same,IC50,"[13]; Homo sapiens, HT-1080, 72 h, read-out: IC50",8700 nM
same,inhibition at 1 µM,[16],50 to 90%
O=C(O)Cc1ccc2oc(-c3ccc(NC(=O)Nc4ccc(-c5nc6cc(CC(=O)O)ccc6o5)cc4F)c(F)c3)nc2c1,inhibition at 10 µM,[2],< 50%
same,IC50,[17],9500 nM
same,inhibition,[4],Active
same,inhibition,[5],Active
same,inhibition at 10 µM,[6],50 to 90%
same,Activity,[18],Dose-dependent effect
same,IC50,[1],180 nM
same,inhibition,[7],Active
same,inhibition,[8],Active
same,Activity,[19],inactive
same,Activity,[20],Active
same,inhibition at 10 µM,[9],50 to 90%
same,IC50,[10]; u2os,Not Active
same,IC50,[11]; u-87mg atcc,Not Active
same,inhibition,[12],Active
same,IC50,[13]; ht-1080,Not Active
Cc1cc2nc(-c3ccc(NC(=O)Nc4ccc(-c5nc6cc(C)c(C)cc6o5)cc4)cc3)oc2cc1C,IC50,[1],> 10000 nM
O=C(Nc1ccc(C(=O)Nc2cccc(C(=O)O)c2)cc1)Nc1ccc(C(=O)Nc2cccc(C(=O)O)c2)cc1,IC50,[1],9170 nM
O=C(O)Cc1cccc(NC(=O)c2ccc(NC(=O)Nc3ccc(C(=O)Nc4cccc(CC(=O)O)c4)cc3)cc2)c1,IC50,[1],1760 nM
O=C(O)Cc1ccc2[nH]c(-c3ccc(NC(=O)Nc4ccc(-c5nc6cc(CC(=O)O)ccc6[nH]5)cc4F)c(F)c3)nc2c1,IC50,[1],980 nM
Cc1cc2nc(N3CCC(NC(=O)NC4CCN(c5nc6cc(C)c(C)cc6o5)CC4)CC3)oc2cc1C,IC50,[1],> 10000 nM
O=C(O)CNC(=O)Cc1ccc2oc(-c3ccc(NC(=O)Nc4ccc(-c5nc6cc(CC(=O)NCC(=O)O)ccc6o5)cc4F)c(F)c3)nc2c1,inhibition at 10 µM,[2],50 to 90%
same,inhibition,[4]; concentration not given here,< 40%
same,inhibition,[5],< 40%
same,inhibition at 10 µM,[6],< 50%
same,IC50,[1],450 nM
same,inhibition,[7]; concentration not given here,< 40%
same,inhibition,[8],< 40%
same,inhibition at 10 µM,[9],50 to 90%
same,IC50,[10]; u2os,Not Active
same,IC50,[11]; u-87mg atcc,Not Active
same,inhibition,[12],< 40%
same,IC50,[13]; ht-1080,Not Active
O=C(Cc1ccc2oc(-c3ccc(NC(=O)Nc4ccc(-c5nc6cc(CC(=O)NCB(O)O)ccc6o5)cc4F)c(F)c3)nc2c1)NCB(O)O,IC50,[1],> 10000 nM
O=C(O)Cc1ccc(O)c(NC(=O)c2ccc(CC(O)Cc3ccc(C(=O)Nc4cc(CC(=O)O)ccc4O)cc3)cc2)c1,IC50,[1],> 10000 nM
N=C(Nc1ccc(-c2nc3cc(CC(=O)O)ccc3o2)cc1)Nc1ccc(-c2nc3cc(CC(=O)O)ccc3o2)cc1,IC50,[1],6020 nM
O=C(O)Cc1ccc2[nH]c(-c3ccc(NC(=S)Nc4ccc(-c5nc6cc(CC(=O)O)ccc6[nH]5)cc4F)c(F)c3)nc2c1,IC50,[1],990 nM
CC(C)CCNC(=O)Cc1ccc2oc(-c3ccc(NC(=O)Nc4ccc(-c5nc6cc(CC(=O)NCCC(C)C)ccc6o5)cc4F)c(F)c3)nc2c1,IC50,[1],> 10000 nM
O=C(O)Cc1ccc2oc(-c3ccc(NC(=O)Nc4ccc(-c5nc6cc(CC(=O)O)ccc6o5)cc4)cc3)nc2c1,IC50,[1],3200 nM
same,IC50,[10]; u2os,Not Active
same,IC50,[11]; u-87mg atcc,Not Active
same,IC50,[13]; ht-1080,Not Active
Cc1cc2nc(-c3ccc(NC(=O)Nc4ccc(-c5nc6cc(C)c(C)cc6o5)cc4F)c(F)c3)oc2cc1C,IC50,[1],> 10000 nM
O=C(O)Cc1cccc(NC(=O)c2ccc(CC(O)Cc3ccc(C(=O)Nc4cccc(CC(=O)O)c4)cc3)cc2)c1,IC50,[1],> 10000 nM
O=C(O)Cc1ccc2oc(-c3ccc(NC(=S)Nc4ccc(-c5nc6cc(CC(=O)O)ccc6o5)cc4F)c(F)c3)nc2c1,IC50,[1],1400 nM
O=C(O)Cc1ccc2oc(-c3ccc(NC(=S)Nc4ccc(-c5nc6cc(CC(=O)O)ccc6o5)cc4)cc3)nc2c1,IC50,[1],1810 nM
O=C(Cc1ccc2oc(-c3ccc(NC(=O)Nc4ccc(-c5nc6cc(CC(=O)NC(Cc7ccccc7)C(=O)O)ccc6o5)cc4F)c(F)c3)nc2c1)NC(Cc1ccccc1)C(=O)O (configuration not stated),IC50,[1],720 nM
same,IC50,[10]; u2os,Not Active
same,IC50,[11]; u-87mg atcc,Not Active
same,IC50,[13]; ht-1080,Not Active
O=C(O)CNC(=O)Cc1ccc2[nH]c(-c3ccc(NC(=O)Nc4ccc(-c5nc6cc(CC(=O)NCC(=O)O)ccc6[nH]5)cc4F)c(F)c3)nc2c1,IC50,[1],> 10000 nM
O=C(Cc1ccc2[nH]c(-c3ccc(NC(=O)Nc4ccc(-c5nc6cc(CC(=O)NCB(O)O)ccc6[nH]5)cc4F)c(F)c3)nc2c1)NCB(O)O,IC50,[1],> 10000 nM
CC(NC(=O)Cc1ccc2oc(-c3ccc(NC(=O)Nc4ccc(-c5nc6cc(CC(=O)NC(C)C(=O)O)ccc6o5)cc4F)c(F)c3)nc2c1)C(=O)O (configuration not stated),inhibition at 10 µM,[2],< 50%
same,inhibition at 10 µM,[6],< 50%
same,IC50,[1],370 nM
same,inhibition at 10 µM,[9],50 to 90%
same,IC50,[10]; u2os,Not Active
same,IC50,[11]; u-87mg atcc,Not Active
same,IC50,[13]; ht-1080,Not Active
